Source: PMC3606118, “Salvianolic Acid A, a Novel Matrix Metalloproteinase-9 Inhibitor, Prevents Cardiac Remodeling in Spontaneously Hypertensive Rats” (PLoS ONE, 2013)

Key:
[1] = tested on: neonatal cardiac fibroblast; assay: Multiplex cytokine assay (Procarta) in cardiac fibroblast supernatants; type: cell-based, Wistar rats; conditions: 1 or 10 µmol/L SalA, 24 h
Experimental: Primary cardiac fibroblast was obtained from neonatal rats and National Institutes of Health (NIH) Guide for the Care and Use of Laboratory Animals was followed throughout. Wistar rats (2–4 day old) were sacrificed by cervical dislocation; ventricles were minced and digested with 0.1% trypsin at 37°C for 8 min. The liberated cells were collected by centrifugations; non-digested chunk materials were further digested in 0.1% trypsin for an additional 8 min. This digestion procedure was repeated 3–4 times. All the liberated cells were pelleted by centrifugation at 1,000 rpm for 10 min, re-suspended in DMEM containing 10% fetal bovine serum (FBS), and cultured in a 100-mm noncoated culture flask at 37°C with 5% CO2 for 2 h. Adherent cardiac fibroblasts were collected and maintained in DMEM supplemented with 10% FBS, 100 U/mL penicillin, 100 µg/mL streptomycin [12]. Cardiac fibroblasts were treated by vehicle (Con); 200 nmol/L MMP-9 CD (MMP-9); 200 nmol/L MMP-9 CD plus 1 µmol/L SalA [MMP-9/SalA(1)]; or 200 nmol/L MMP-9 CD plus 10 µmol/L SalA [MMP-9/SalA(10)] for the following research. All the detections were conducted after 24 h treatment.
Procarta cytokine profiling kit (Panomics, CA, USA) was used to simultaneously detect 3 different rat cytokines in the cell culture supernatants, according to manufacturer’s instruction. Briefly, 50 µL antibody beads were added to each well of the Filter plate, washed with Wash buffer. Fifty microliter cell culture supernatant was then added to each well, incubated for at least 1 h at room temperature, and washed with Wash buffer. Afterwards, 25 µL per well of the Detection Antibody was added and the Filter plate was shaken at 500 rpm for 30 min at room temperature. After adding Sreptavidin-PE, the signals were detected using a Luminex 200 instrument (Bio-Rad, CA, USA). The cytokines included in the present study were intercellular adhesion molecule (ICAM), interleukin-6 (IL-6), tumor necrosis factor-α (TNF-α and soluble vascular cell adhesion molecule-1 (sVCAM-1).

MMP-2 = biological target: T1, MMP-2 (Rattus norvegicus, UniProt P33436); assay: In-gel gelatin zymography of SHR heart, MMP-2; type: in vivo, SHR rats; conditions: SalA i.p. everyday for 4 weeks
T1 construct: twenty µg protein from tissue; from tissue; host or cells: heart of spontaneously hypertensive rats (SHR)
T1 sequence (P33436 110-662): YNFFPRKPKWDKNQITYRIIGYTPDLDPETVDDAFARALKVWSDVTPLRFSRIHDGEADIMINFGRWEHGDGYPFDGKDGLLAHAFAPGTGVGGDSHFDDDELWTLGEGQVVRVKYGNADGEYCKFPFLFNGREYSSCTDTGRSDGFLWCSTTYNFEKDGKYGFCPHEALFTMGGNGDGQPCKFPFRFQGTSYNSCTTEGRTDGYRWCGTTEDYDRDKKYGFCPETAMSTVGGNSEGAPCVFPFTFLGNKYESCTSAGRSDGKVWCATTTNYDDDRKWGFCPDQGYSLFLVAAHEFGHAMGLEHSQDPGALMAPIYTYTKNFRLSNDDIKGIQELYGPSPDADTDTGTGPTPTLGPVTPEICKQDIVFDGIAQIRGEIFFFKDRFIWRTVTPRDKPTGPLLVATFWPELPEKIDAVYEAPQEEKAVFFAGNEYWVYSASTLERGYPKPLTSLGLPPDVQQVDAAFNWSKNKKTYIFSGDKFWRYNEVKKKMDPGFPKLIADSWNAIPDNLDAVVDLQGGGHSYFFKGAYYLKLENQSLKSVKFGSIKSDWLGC

MMP-9 CD = biological target: T2, MMP-9 CD (Homo sapiens, UniProt P14780, DEL217-390); assay: Real time binding by surface plasmon resonance (Biacore); conditions: steady state affinity fit model; immobilized MMP-9 CD, 25°C; read-out: equilibrium dissociation constant (KD)
T2 construct: corresponding to residues 107–216 and 391–444; made in house
T2 sequence (P14780 with tags, fused parts or gaps DEL217-390 limits assumed): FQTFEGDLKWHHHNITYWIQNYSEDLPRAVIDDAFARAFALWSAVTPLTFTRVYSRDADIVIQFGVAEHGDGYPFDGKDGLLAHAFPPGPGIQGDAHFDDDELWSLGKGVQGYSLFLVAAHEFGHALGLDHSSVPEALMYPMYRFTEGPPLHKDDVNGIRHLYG
Experimental: DNA fragments encoding the catalytic domain of MMP-9 (MMP-9 CD, corresponding to residues 107–216 and 391–444) were constructed and subcloned into a pET-15b vector (Novagen). […]. Surface plasmon resonance analysis was performed using Biacore 3000 (Biacore AB). In brief, MMP-9 CD protein (5.8 µmol/L) in 10 mmol/L sodium acetate buffer (pH 3.73) was covalently immobilized on the hydrophilic carboxymethylated dextran matrix of the CM5 sensor chip (BIAcore AB) using standard primary amine coupling procedure. Phenolic acid at various concentrations in HBS-EP running buffer (10 mmol/L HEPES pH 7.4, 150 mmol/L NaCl, 3.4 mmol/L EDTA and 0.005% surfactant P20) were injected at a constant flow rate of 30 µL/min at 25°C. All data were analyzed by BIAevaluation software and the sensorgrams were processed by automatic correction for nonspecific bulk refractive index effects.

[2] = tested on: H9c2 cells overexpressing MMP-9 (pDEST-MMP9); assay: Transwell migration of H9c2 cells overexpressing MMP-9; type: cell-based, Rat; conditions: pDEST-MMP9 untreated 157.4±10.2, pDEST 74.6±8.9
Experimental: Transwell assay was employed to evaluate effects of SalA on neonatal cardiac fibroblast migration induced by MMP-9 CD. Twenty thousand cells in 200 µL culture medium containing various concentrations of SalA were loaded onto PET track-etched membrane in modified Boyden chambers (BD Falcon Cell Culture Insert, BD), and same medium containing MMP-9 CD (200 nmol/L) was added to the lower side of the migration chamber. After incubating for 24 h, migrated cells (in the lower side of migration chamber) were stained with 0.1% crystal violet and counted with a microscope at 200 X magnification. Five to six view fields were counted on each membrane. Migration is expressed as the mean value of total number of migrated cells per field. DNA cloning using Gateway technology was carried out according to manufacturer’s instructions. Full-length MMP-9 cDNA (MGC-12688) was first subcloned into entry vector pDONR^TM221, followed by recombination reaction between the attL-containing pDONR^TM221 vector and attR-containing destination pDEST vector (Invitrogen, Carlsbad, CA, USA). […] Stable H9c2 cell line was generated by selection with 2 mg/mL G418 (denoted as pDEST-MMP9) and maintained in 0.75 mg/mL G418, and expression of MMP-9 was evaluated using zymography assay. […]

For `O=C(/C=C/c1ccc(O)c(O)c1/C=C/c1ccc(O)c(O)c1)O[C@H](Cc1ccc(O)c(O)c1)C(=O)O` [SalA, salvianolic acid A], the “ICAM secretion induced by MMP-9 CD” value [1] was “inhibition”, the “IL-6 secretion induced by MMP-9 CD” value [1] was “inhibition” and the “TNF-α secretion induced by MMP-9CD” value [1] was “No significant inhibitory effect”. The “sVCAM-1 secretion induced by MMP-9 CD” value [1] was “inhibition”, the “MMP-2 activity in heart of SHRs” value (MMP-2) was “no regulation” and the Kd (MMP-9 CD) was 800 nM. It also gave a migrated cells ([2]; 1 µmol/L SalA) of 84.4±17.0 cells per field and a migrated cells ([2]; 10 µmol/L SalA) of 42.3±8.9 cells per field.
